Values quoted from earlier work, collected in US10493116B2, “Longevity gene expression enhancer” (Shiseido Company, Ltd., priority 2014, dated 2019).
Values belong to the molecule of their own block, whether it stands above or below them.

Experiments:
sirtuin-1 [1] = target: T1, sirtuin-1 (Homo sapiens, UniProt Q96EB6)
T1 sequence (Q96EB6 1-747): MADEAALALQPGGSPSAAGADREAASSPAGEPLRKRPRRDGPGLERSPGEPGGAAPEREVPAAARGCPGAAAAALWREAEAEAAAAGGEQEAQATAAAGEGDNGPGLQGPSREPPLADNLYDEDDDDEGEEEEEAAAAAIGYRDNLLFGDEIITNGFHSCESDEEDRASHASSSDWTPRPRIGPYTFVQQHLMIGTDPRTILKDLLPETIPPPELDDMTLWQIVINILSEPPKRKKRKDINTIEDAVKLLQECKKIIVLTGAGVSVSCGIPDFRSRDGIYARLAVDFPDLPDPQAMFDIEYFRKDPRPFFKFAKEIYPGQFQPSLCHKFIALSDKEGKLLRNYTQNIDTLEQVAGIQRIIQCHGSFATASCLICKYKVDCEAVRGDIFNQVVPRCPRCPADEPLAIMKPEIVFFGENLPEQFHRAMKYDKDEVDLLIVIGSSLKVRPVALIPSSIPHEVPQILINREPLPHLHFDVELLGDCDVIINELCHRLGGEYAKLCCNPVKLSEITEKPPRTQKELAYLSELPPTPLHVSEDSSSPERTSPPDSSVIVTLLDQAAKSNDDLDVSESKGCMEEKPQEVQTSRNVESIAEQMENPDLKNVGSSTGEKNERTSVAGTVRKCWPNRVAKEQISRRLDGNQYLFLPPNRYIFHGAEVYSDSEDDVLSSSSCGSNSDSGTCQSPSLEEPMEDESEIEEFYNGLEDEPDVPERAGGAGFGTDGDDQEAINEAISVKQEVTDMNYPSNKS

sirtuin-1 [2] = details: quercetin produced from rutin in the body; J. Pharmacol. Sci., 2008, 108, 364-71

sirtuin-1 activating effect (sirtuin-1 [1]; PLoS One, 2014, 9(2), e89166): no sirtuin-1 activating effect
Compound: O=C(/C=C/c1ccc(O)c(O)c1)O[C@@H]1C[C@](O)(C(=O)O)C[C@@H](O)[C@H]1O [chlorogenic acid]

Compound: COc1ccc([C@@H]2CC(=O)c3c(O)cc(O[C@@H]4O[C@H](CO[C@@H]5O[C@@H](C)[C@H](O)[C@@H](O)[C@H]5O)[C@@H](O)[C@H](O)[C@H]4O)cc3O2)cc1O [hesperidin]
effect of activating sirtuin-1 (sirtuin-1 [1]; at 5 μM, Biosci. Biotechnol. Biochem., 2012, 76(4), 640-645): effect of activating sirtuin-1

Compound: O=c1c(O)c(-c2ccc(O)c(O)c2)oc2cc(O)cc(O)c12 [quercetin]
sirtuin-1 expression inhibiting effect (sirtuin-1 [2]): sirtuin-1 expression inhibiting effect
